Source: patent publication US20190269629A1, “COMPOSITIONS AND METHODS FOR INHIBITING GROWTH OF ACSL4-OVEREXPRESSING TUMORS” (CONSEJO NACIONAL DE INVESTIGACIONES CIENTÍFICAS Y TÉCNICAS …, priority 2016, published 2019)

Columns and labels:
Assay type in all cases: cell-based, human
ABCC4 = assay: Western blot of ABCC4 in MDA-MB-231 cells after ACSL4 inhibition; details: Triacsin C 1 uM or rosiglitazone 100 uM, 48 h
Source text: (§1) A) MDA-MB-231 cells were transfected with the pSUPER.retro plasmid containing a shRNA targeted to ACSL4 (shRNA-ACSL4) or an empty plasmid (mock) as previously described ((Maloberti P. M. et al., 2010, supra).
(§2) One month post selection, whole cell extracts were obtained and analyzed by Western blot as previously described using the indicated antibodies. […] Forty-eight hours post-treatment, whole cell extracts were obtained and analyzed by Western blot as previously described using the indicated antibodies. Representative blots (upper panels) and integrated optical density of protein levels (lower panels) quantified and normalized with the corresponding 1-tubulin signal are shown.
(§3) J Biol Chem 2001; 276(27):24667-24673).
(§4) MDA-MB-231 cells were seeded the day before and grown up to 80% confluence. […] The empty vector was used as control. Transfection efficiency was estimated by counting fluorescent cells transfected with the pRc/CMVi plasmid containing the enhanced form of green fluorescent protein [Maloberti et al.; 2010].

ABCG2 = assay: Western blot of ABCG2 in MDA-MB-231 cells after ACSL4 inhibition; details: Triacsin C 1 uM or rosiglitazone 100 uM, 48 h
Source text: as §1, §2, §3, §4

ABCC8 = assay: Western blot of ABCC8 in MDA-MB-231 cells after ACSL4 inhibition; details: Triacsin C 1 uM or rosiglitazone 100 uM, 48 h
Source text: as §1, §2, §3, §4

MDA-MB-231 cells [1] = assay: BrdU cell proliferation assay, MDA-MB-231 cells; details: for inhibition of MDA-MB-231 cell proliferation (BrdU): Triacsin C 0.01-0.10 M and/or doxorubicin 0.025 μM or paclitaxel 0.1 μM, 96 h; for dosage used in combination therapy relative to the minimum dose that produces a significant inhibition when administered alone: Triacsin C: in cell culture; for dosage used in combination therapy relative to the minimum dose that produces a significant inhibition when administered alone / amount used in combination relative to the maximum effective dose when applied alone (same inhibitory effect): combination therapy
Procedure: Subsequently, cell proliferation was measured by BrdU incorporation assay. Data arc presented as inhibition of cell proliferation compared to control cells. White bars indicate single inhibitor treatment while grey bars indicate combined inhibitor treatment.
MDA-MB-231 cells were plated as described in FIG. 3 and then incubated with Triacsin C ([…]) and/or A. doxorubicin (0.025 μM), B. paclitaxel (0.1 μM) for 96 h. Subsequently, cell proliferation was measured by BrdU incorporation assay. Data are presented as inhibition of cell proliferation compared to control cells. White bars indicate single inhibitor treatment while black bars indicate combined inhibitor treatment.
(§5) Cell proliferation assays were measured by the MTT and 5-bromo-2′-deoxyuridine (BrdU) incorporation as previously described (Maloberti P. M. et al., 2010).
MBA-MB-231 cells were plated at a density of 4000 cells/well in 96-well plates with 10% FBS-supplemented D-MEM medium and allowed to adhere overnight at 37° C. in a humidified, 5% CO2 atmosphere. The medium was then changed to serum-free medium. […] Subsequently, cell proliferation was measured by the bromo-deoxvuridine (BrdU) incorporation assay.
MDA-MB-231 cells were plated at a density of 4000 cells/well in 96-well plates with 10% FBS-supplemented D-MEM medium and allowed to adhere overnight at 37° C. in a humidified, 5% CO2 atmosphere. The medium was then changed to serum-free medium. […] Subsequently, cell proliferation was measured by the bromo-deoxyuridine (BrdU) incorporation assay.
(§6) MBA-MB-231 cells were plated at a density of 4000 cells/well in 96-well plates with 10% FBS-supplemented D-MEM medium and allowed to adhere overnight at 37° C. in a humidified, 5% CO2 atmosphere. The medium was then changed to serum-free medium. After 24 h, the cells were switched to 10% FBS-supplemented D-MEM medium and incubated with doxorubicin and/or Triacsin C for 96 h. Subsequently, cell proliferation was measured by the bromo-deoxyuridine (BrdU) incorporation assay.
MDA-MB-231 cells were plated at a density of 4000 cells/well in 96-well plates with 10% FBS-supplemented D-MEM medium and allowed to adhere overnight at 37° C. m a humidified, 5% CO2 atmosphere. The medium was then changed to serum-free medium. After 24 h. the cells were switched to 10% FBS-supplemented D-MEM medium and incubated with paclitaxel and/or Triacsin C for 96 h. Subsequently, cell proliferation was measured by the bromo-deoxvuridine (BrdU) incorporation assay.

[2] = tested on: MCF-7 Tet-Off/ACSL4 cells; assay: BrdU cell proliferation assay, MCF-7 Tet-Off/ACSL4 cells
Procedure: (§7) MCF-7 Tet-Off empty vector and MCF-7 Tet-Off/ACSL4 cells were plated at a density of 4000 cells/well in 96-well plates with 10% FBS-supplemented D-MEM and allowed to adhere overnight at 37° C. in a humidified 5% CO2 atmosphere. The medium was then changed to serum-free medium. After 24 h, the cells were switched to 10% FBS-supplemented D-MEM with A. doxorubicin (0.025-0.100 μM) and B. paclitaxel (0.1-0.5 μM), and with doxycycline (0.025 μM) where indicated. After 48 h, cell proliferation was measured by BrdU incorporation assay. Data are presented as inhibition of cell proliferation compared to control cells.
as §5
Separate experiments were carried out for each one of the tested chemotherapeutic agents. Each chemotherapeutic agent was first tested alone at the concentrations used, and then in combination with doxycycline, for each of the cell groups: MCF-7 Tet-Off/ACSL4 cells, MCF-7 Tet-Off empty vector cells and doxycycline-treated MCF-7 Tet-Off/ACSL4 cells, the latter is used to specifically override ACSL4 expression.
as §6, with “MCF-7 Tet-Off empty vector and MCF-7 Tet-Off/ACSL4” for “MBA-MB-231”, “at varying (sub-therapeutically effective or non-effective per se) concentrations (0.025, 0.050, 0.100 μM)” for “and/or Triacsin C”
MCF-7 Tet-Off empty vector and MCF-7 Tet-Off/ACSL4 cells were plated at a density of 4000 cells/well in 96-well plates with 10% FBS-supplemented D-MEM medium and allowed to adhere overnight at 37° C. in a humidified, 5% CO2 atmosphere. The medium was then changed to serum-free medium. After 24 h, the cells were switched to 10% FBS-supplemented D-MEM medium and incubated with paclitaxel at varying (sub-therapeutically effective or non-effective per se) concentrations (0.1, 0.2, 0.5 μM) for 96 h. Subsequently, cell proliferation was measured by the bromo-deoxyuridine (BrdU) incorporation assay.

MDA-MB-231 cells [3] = assay: BrdU cell proliferation assay, MDA-MB-231 cells; details: rosiglitazone 20 μM and/or doxorubicin 0.025 μM or paclitaxel 0.5 μM; 96 h
[4] = tested on: MCF-7 Tet-Off empty vector cells; assay: BrdU cell proliferation assay, MCF-7 Tet-Off empty vector cells; details: doxorubicin 0.025, 0.050, 0.100 μM or paclitaxel 0.1, 0.2, 0.5 μM, 96 h
Procedure: as §7, §5
Separate experiments were carried out for each one of the tested chemotherapeutic agents. […]
MCF-7 Tet-Off empty vector and MCF-7 Tet-Off/ACSL4 cells were plated at a density of 4000 cells/well in 96-well plates with 10% FBS-supplemented D-MEM medium and allowed to adhere overnight at 37° C. in a humidified, 5% CO2 atmosphere. […] Subsequently, cell proliferation was measured by the bromo-deoxyuridine (BrdU) incorporation assay. […]

[5] = MCF-7 Tet-Off/ACSL4 cells, doxorubicin 0.025, 0.050, 0.100 μM or paclitaxel 0.1, 0.2, 0.5 μM, 96 h
[6] = doxycycline-treated MCF-7 Tet-Off/ACSL4 cells, doxorubicin 0.025-0.100 μM or paclitaxel 0.1-0.5 μM

Compound	ABCC4 protein levels (ABCC4)	ABCG2 protein levels (ABCG2)	ABCC8 protein levels (ABCC8)	inhibition of MDA-MB-231 cell proliferation (BrdU) (MDA-MB-231 cells [1])	dosage used in combination therapy relative to the minimum dose that produces a significant inhibition when administered alone (MDA-MB-231 cells [1])	inhibition of cell proliferation (BrdU) [2, 5]	inhibition of cell proliferation (BrdU) [2, 6]	inhibition of MDA-MB-231 cell proliferation (BrdU) (MDA-MB-231 cells [3])	amount used in combination relative to the maximum effective dose when applied alone (same inhibitory effect) (MDA-MB-231 cells [1]) [times lower]	inhibition of cell proliferation (BrdU) [4]
CCC/C=C/C/C=C/C=C/C=NNN=O [Triacsin C, N-(((2E,4E,7E)-undeca-2,4,7-trienylidene)amino)nitrous amide]	markedly decreased	markedly decreased	markedly decreased	very little effect	5 times lower	–	–	–	–	–
COc1cccc2c1C(=O)c1c(O)c3c(c(O)c1C2=O)C[C@@](O)(C(=O)CO)C[C@@H]3O[C@H]1C[C@H](N)[C@H](O)[C@H](C)O1 [doxorubicin]	–	–	–	very little effect	2.6 times lower	very little or no effect	significantly increased inhibition of cell proliferation	very little effect	12	inhibited proliferation
CC(=O)O[C@H]1C(=O)[C@@]2(C)[C@H]([C@H](OC(=O)c3ccccc3)[C@]3(O)C[C@H](OC(=O)[C@H](O)[C@@H](NC(=O)c4ccccc4)c4ccccc4)C(C)=C1C3(C)C)[C@]1(OC(C)=O)CO[C@@H]1C[C@@H]2O [paclitaxel]	–	–	–	very little effect	half	little or no effect	significantly increased inhibition of cell proliferation	very little effect	5	inhibited proliferation
